Consider six molecules from patent US8012978B2, “Prodrugs of CC-A1065 analogs” (ImmunoGen, Inc., priority 2006, dated 2011).

Read-outs that look alike come from different tables or passages of the source.

For one series, the system named is Ramos cells. Description: In vitro cytotoxicity towards Ramos cells. The format is cell-based, human. The method, then: (§1) Sulfide or disulfide-containing and mercapto-containing prodrugs of CC-1065 analogs of the present invention can be evaluated for their ability to suppress proliferation of various unwanted cell lines in vitro under incubation conditions. Cell lines such as, for example, Ramos cell line and HL60 can easily be used for the assessment of the cytotoxicity of these compounds. Cells to be evaluated can be exposed to the compounds for 24 hours and the surviving fractions of cells measured in direct assays by known methods. IC50 values can then be calculated from the results of the assays.
(§2) Cytotoxicity of the prodrugs of the present invention and their conjugates with cell binding agents can be measured after cleavage of the protecting group and conversion into the active drug. Cytotoxicity to non-adherent cell lines such as Namalwa and HL60 can be measured by back-extrapolation of cell proliferation curves as described in Goldmacher et al, 135 J. Immunol. 3648-3651 (1985). Cytotoxicity of these compounds to adherent cell lines such as A-375 and SCaBER can be determined by clonogenic assays as described in Goldmacher et al, 102 J. Cell Biol. 1312-1319 (1986).
(§3) The human cancer cell lines HL60, Namalwa, A-375, COLO205 and Ramos were obtained from the American Type Culture Collection (ATCC). Kara is a murine tumor cell line that has been stably transfected with the human CD33 antigen.
• Cytotoxicity of DC07-SMe (FIG. 2) and DC1-SMe (FIG. 1D) towards Ramos and HL60/S cells has been measured in vitro with 5-day exposure. IC50 are shown below.
• Cytotoxicity of DC1-SPy and DC07-SPy towards Ramos and HL60 cells has been measured. Results are given in FIG. 7 and IC50 are shown below.
(§4) • Cytotoxicity of DC08-SSPy towards Namalwa and Ramos cells has been measured. Results are given in FIG. 8 and IC50 are shown below.
• Cytotoxicity of MY9-6-DC07 (disulfide linked) towards antigen positive Kara and antigen negative Ramos cells has been measured. Results are given in FIG. 9 and IC50 are shown below.

Series [1] is described as follows: Conversion of prodrug by incubation in mice serum. The class given is in vitro ADME. From the text: (§5) The synthesis of prodrugs DC07 (7a), DC08 (8a) and DC107 (FIG. 4) is described herein. DC07 and DC08 as well as DC107 are derived from the parent drug DC1 and DC101, while DC09 (9a) can be prepared from the pegylated parent drug DC5 which was described in U.S. Pat. No. 6,756,397 B2 (FIG. 3). […] These drugs also have enhanced water solubility as compared with DC1.

Another series deals with HL60 cells. Description: In vitro cytotoxicity towards HL60 cells. The class given is cell-based, human. Conditions: HL60/s cells, 5-day exposure; read-out: IC50 Concentration. On the procedure: as §1
Cytotoxicity of the prodrugs of the present invention and their conjugates with cell binding agents can be measured after cleavage of the protecting group and conversion into the active drug. Cytotoxicity to non-adherent cell lines such as Namalwa and HL60 can be measured by back-extrapolation of cell proliferation curves as described in Goldmacher et al, 135 J. Immunol. 3648-3651 (1985). Cytotoxicity of these compounds to adherent cell lines such as A-375 and SCaBER can be determined by clonogenic assays as described in Goldmacher et al, 102 J. Cell Biol. 1312-1319 (1986). […]
• Cytotoxicity of DC07-SMe (FIG. 2) and DC1-SMe (FIG. 1D) towards Ramos and HL60/S cells has been measured in vitro with 5-day exposure. […]
• Cytotoxicity of DC1-SPy and DC07-SPy towards Ramos and HL60 cells has been measured. […]

The subject of another series is Namalwa cells. Kind of series: In vitro cytotoxicity towards Namalwa cells. The format is cell-based, human. Particulars: Namalwa cells (FIG. 8).
From the text: as §2, §3, §4

A short description of series [2]: Conversion of prodrug by incubation in serum or plasma. The format is in vitro ADME.
From the text: as §5

Series [3] can be described thus: Stability in aqueous solutions. Particulars: pH 5.5 or below. The class given is physicochemical.
From the text: as §5

The conditions of series [4]: cited from earlier work.
The subject of a further series is mice. Particulars: single intravenous dose of 12.5 μg/kg; cited from earlier work.
For the next series, the system named is A-375 cells. Kind of series: In vitro cytotoxicity towards antigen negative A-375 cells. The class given is cell-based, human.
From the text: as §2, §3
(§6) • Cytotoxicity of huC242-DC07 (thioether linked) towards antigen positive COLO 205 and antigen negative A-375 cells has been measured. Results are given in FIG. 10 and IC50 are shown below.

The subject of the next series is COLO 205 cells. Kind of series: In vitro cytotoxicity towards antigen positive COLO 205 cells. The format is cell-based, human.
From the text: as §2, §3, §6

Where [5] appears, read: Ramos cells, 5-day exposure, read-out: IC50 Concentration.

With `CSSCCC(=O)Nc1ccc2[nH]c(C(=O)Nc3ccc4[nH]c(C(=O)N5C[C@@H](CCl)c6c5cc(OC(=O)Nc5cccc(S(=O)(=O)O)c5)c5ccccc65)cc4c3)cc2c1` [DC07-SMe], the IC50 in the series on Ramos cells (setting [5]) turned out to be 0.12 nM; in the series on HL60 cells, 0.05 nM. Also, the “conversion into the parent drug” value in series [1] is recorded as “converts it into the parent drug DC1SMe”.
Turning to “(S)—N-[2-{(1-chloromethyl)-1,2-dihydro-5-[(3-hydroxysulfonylmethyl-phenyl)aminocarbonyloxy]-3H-benz(e)indol-3-yl}carbonyl]-H-indol-5-yl]-5-{[3-(2-pyridyldithio)-propanoyl]-amino}-1H-indole-2-carboxamide [DC08-SSPy]”, the IC50 was 0.42 nM with Namalwa cells and 0.42 nM in the series on Ramos cells (Ramos cells (FIG. 8), read-out: IC50).
Turning to `CSSCCC(=O)Nc1ccc2[nH]c(C(=O)Nc3ccc4[nH]c(C(=O)N5C[C@@H](CCl)c6c5cc(O)c5ccccc65)cc4c3)cc2c1` [DC1-SMe, 1-[S]-(chloromethyl)-5-hydroxy-3-{{5-[5-(3-methyldithiopropionyl)indol-2-yl-carbonylamino]indole-2-yl}carbonyl}-1,2-dihydro-3H-benz[e]indole, reference compound], the IC50 with Ramos cells (setting [5]) came to 0.062 nM; in the series on HL60 cells it was 0.036 nM.
Take `O=C(CCS)Nc1ccc2[nH]c(C(=O)Nc3ccc4[nH]c(C(=O)N5C[C@@H](CCl)c6c5cc(OC(=O)Nc5cccc(S(=O)(=O)O)c5)c5ccccc65)cc4c3)cc2c1` [DC07]: the “conversion into the parent drug” value in series [2] is “can be converted into the parent drug DC1”. For the same molecule, the “stability in aqueous solutions” value in series [3] was “extremely stable”.
For `COc1c(O)c2c(c3cc(C(=O)N4CCc5c4c(O)c(OC)c4[nH]c(C(=O)N6CC7CC78C6=CC(=O)c6[nH]cc(C)c68)cc54)[nH]c13)CCN2C(N)=O` (stereo not shown) [CC-1065], the “potency in vitro relative to doxorubicin, methotrexate and vincristine” value in series [4] is “about 1000 fold”. Besides, the toxicity result in the series with mice is given as “delayed hepatotoxicity leading to mortality on day 50”.

B1: huC242-DC07: huC242-DC07 (thioether linked) conjugate (conjugate, chains of the INN, looked up)
VH: QVQLVQSGAEVKKPGETVKISCKASDYTFTYYGMNWVKQAPGQGLKWMGWIDTTTGEPTYAQKFQGRIAFSLETSASTAYLQIKSLKSEDTATYFCARRGPYNWYFDVWGQGTTVTVSS
VL: DIVMTQSPLSVPVTPGEPVSISCRSSKSLLHSNGNTYLYWFLQRPGQSPQLLIYRMSNLVSGVPDRFSGSGSGTAFTLRISRVEAEDVGVYYCLQHLEYPFTFGPGTKLELK
modifications: DC07 drug, thioether linked
notes: huC242-DC07 (thioether linked) conjugate
In the case of B1, the IC50 came out at 1.3 nM in the series with A-375 cells and 0.035 nM in the series with COLO 205 cells.
